Measurements published in patent US20090170926A1, “Antiviral agents” (Monash Univeristy, priority 2004, published 2009).
Like-named read-outs stand apart in the source and are kept apart here.

Assays:
[1] = system: hepatitis B in 2.2.15 human hepatoma cells; assay: Antiviral activity in 2.2.15 human hepatoma cells infected with hepatitis B (viral DNA in supernatant); type: cell-based; conditions: Hepatitis B virus; for EC50: read-out: EC50 (effective concentration for 50% inhibition of the replication of the virus); for EC90: read-out: EC90 (effective concentration for 90% inhibition of the replication of the virus)
Experimental: Tests of antiviral activity were performed in 2.2.15 human hepatoma cells infected with hepatitis B according to the method of Korba and Gerin, Antiviral Research, 19, 55-70 (1992). Briefly, cells were seeded into 96 well plates and cell media containing various concentrations of the compounds was added. Media was changed daily for 9 days and fresh media containing compound was added each day. On the 10th day, viral DNA in the supernatant was measured and the reduction in the amount of virus in the supernatant was calculated compared to cells incubated without drug. Six separate replicates were performed for each drug concentration. The effective concentration for 50% and 90% inhibition of the replication of the virus was determined from dose response curves.

[2] = system: HBV containing mutations associated with resistance to lamivudine (L180M and L180M/M204V in the HBV DNA polymerase) in HepG2 hepatoma cells; assay: HBV core protein level in HepG2 hepatoma cells infected with lamivudine-resistant HBV (non-denaturing Western blot); type: cell-based, hepatitis B virus; conditions: day 5, HBV core protein vs controls
Experimental: Antiviral activity was also examined in HepG2 hepatoma cells infected with HBV containing mutations associated with resistance to lamivudine (3TC). Two cell lines containing an L180M mutation in the HBV DNA polymerase, and a double L180M/M204V mutation were used. Cells were plated out in six well plates and allowed to attach overnight. Next day, the culture medium was replaced with either medium alone or medium containing the desired concentration of antiviral compound. Media was changed for fresh medium with or without antiviral compound on day 3. On day 5, supernatant and cell lysatcs were analysed for levels of HBV core protein by non-denaturing Western blot using an anti-HBV core antibody.
Results for some of the compounds are shown in Table 2 where a 50% reduction or more in measured level of the viral core protein compared to controls at a compound concentration of greater than 50 μmolar is designated +50% core reduction at less than 50 μmolar is designated ++ and 50% core reduction at less than 10 μmolar compound concentration is designated +++.

Solubility in water = type: physicochemical; conditions: read-out: solubility in water (fully soluble)
Experimental: The ^1H NMR can also be run in D2O, compound 13 is fully soluble in water at 10 mg/mL

[3] = 2.2.15 cells, 9 days treatment, viral DNA in supernatant on day 10

melting point [°C]	SMILES	≧50% core reduction [2]	other results
167 to 168	Cc1ccc(S(=O)(=O)OC2=C(Br)C(=O)c3c(ccc4c3C=CC(C)(C)O4)C2=O)cc1		
168 to 169.5	Cc1ccc(S(=O)(=O)OC2=C(Br)C(=O)c3ccc4c(c3C2=O)CCC(C)(C)O4)cc1		
109 to 115	Cc1ccc(S(=O)(=O)OC2=C(Br)C(=O)c3c(ccc4c3CCC(C)(C)O4)C2=O)cc1		
181.5 to 184	Cc1ccc(S(=O)(=O)OC2=C(Br)C(=O)c3ccc4c(c3C2=O)C=CC(C)(C)O4)cc1		

Second part, the molecule before the results:

SMILES	melting point [°C]	≧50% core reduction [2]	other results
CC1(C)CCc2c(ccc3c2C(=O)C=C(O)C3=O)O1 [Compound 2, 8-Hydroxy-3,3-dimethyl-1,2-dihydro-3H-naphtho[2,1-b]pyran-7,10-dione]	183.5 to 187		EC50 [1, 3]: 1100 nM; EC90 [1, 3]: 1300 nM
CC1(C)CCc2c(ccc3c2C(=O)C(Br)=C(O)C3=O)O1 [Compound 5, 9-bromo-8-hydroxy-3,3-dimethyl-1,2-dihydro-3H-naphtho[2,1-b]pyran-7,10-dione]	213 to 216	++ (50% core reduction at less than 50 μmolar is designated ++)	
CC1(C)C=Cc2c(ccc3c2C(=O)C=C(O)C3=O)O1 [Compound 13, Sodium 3,3-dimethyl-7,10-dioxo-7,10-dihydro-3H-benzo[f]chromen-8-olate]		+ (a 50% reduction or more in measured level of the viral core protein compared to controls at a compound concentration of greater than 50 μmolar is designated +)	solubility (Solubility in water): ≥ 10000 µg/mL
CC1(C)C=Cc2c(ccc3c2C(=O)C(Br)=C(O)C3=O)O1 [Compound 6, 9-Bromo-8-hydroxy-3,3-dimethyl-3H-naphtho[2,1-b]pyran-7,10-dione]		+ (a 50% reduction or more in measured level of the viral core protein compared to controls at a compound concentration of greater than 50 μmolar is designated +)	
CC1(C)C=Cc2c(ccc3c2C(=O)C=C(O)C3=O)O1 [Compound 1, 8-hydroxy-3,3-dimethyl-3H-naphtho[2,1-b]pyran-7,10-dione]	208	+++ (50% core reduction at less than 10 μmolar compound concentration is designated +++)	EC50 [1]: 600 nM; EC90 [1]: 3400 nM
CC1(C)CCc2c(ccc3c2C(=O)C(Cl)=C(Cl)C3=O)O1	158 to 160		
